The source of these data is PubChem BioAssay (NCI).

SMILES strings stand for the structures.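 The compound was tested at five concentrations on cells cultured in 96-well plates, with a 48-hour exposure period. The concentration for 50% growth inhibition is given as GI50. TGI marks complete inhibition of growth.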 A value given as a limit tells only on which side of the number the result lay.

Among the test systems are SF-268 CNS; UO-31 renal; SF-539 CNS; DU-145 prostate; OVCAR-8 ovarian; HL-60(TB) leukemia; HCC-2998 colon; KM12 colon; M14 melanoma; NCI-H460 lung.
Experiment in all cases: NCI anticancer screen, dose series, 48 h

As to `C#Cc1nc2ccccc2c(=O)[nH]1`, the GI50 with SF-268 CNS was 1.54 µM; in the experiment with UO-31 renal, 0.383 µM; in the experiment on SF-539 CNS, 0.345 µM; in the experiment with DU-145 prostate, 1.63 µM; in the experiment with OVCAR-8 ovarian, 0.897 µM; in the experiment on HL-60(TB) leukemia it was 0.26 µM. For the same compound, the GI50 with HCC-2998 colon was 1.6 µM; with KM12 colon, 1.39 µM; in the experiment with M14 melanoma, 1.07 µM; in the experiment with NCI-H460 lung, 1.79 µM. Moreover, the TGI in the experiment with SF-268 CNS amounted to 4.57 µM; in the experiment on UO-31 renal it was 1.61 µM; in the experiment with SF-539 CNS it was 1.42 µM; with DU-145 prostate, 8.25 µM; in the experiment with OVCAR-8 ovarian, 8.19 µM; in the experiment with HL-60(TB) leukemia it was 0.807 µM. Further, the TGI was 3.11 µM with HCC-2998 colon, 2.94 µM with KM12 colon, 3.06 µM in the experiment with M14 melanoma and 7.66 µM in the experiment on NCI-H460 lung.
Regarding `Cc1nc2c(n1C)C(=O)c1ccccc1C2=O`, the GI50 is over 100 µM in the experiment with SF-268 CNS; 77.6 µM in the experiment on UO-31 renal; 85.5 µM in the experiment with SF-539 CNS; 51.3 µM in the experiment on DU-145 prostate; over 100 µM in the experiment on OVCAR-8 ovarian; 46.8 µM in the experiment on HL-60(TB) leukemia. Further, the GI50 is 67.6 µM in the experiment on HCC-2998 colon, 59.7 µM with KM12 colon, 43 µM in the experiment on M14 melanoma and 18 µM in the experiment with NCI-H460 lung. The TGI with SF-268 CNS, in the experiment with UO-31 renal, in the experiment with SF-539 CNS, with DU-145 prostate, with OVCAR-8 ovarian and in the experiment on HL-60(TB) leukemia was over 100 µM throughout. For the same compound, the TGI in the experiment with HCC-2998 colon, in the experiment on KM12 colon, in the experiment with M14 melanoma and in the experiment with NCI-H460 lung was over 100 µM each time.
For the compound `COC(=O)C1C(O)C(C)C(O)C(C)C=C(C)C2=C3C(=C(C)C(=O)c4c(O)c(c(C)c(OC(C)=O)c43)NC(=O)C(C)=C/C=C\C(C)C(O)C(C)C1O)OCO2` (stereo unspecified), the TGI in the experiment on SF-268 CNS is 44.9 µM; with UO-31 renal, over 100 µM; in the experiment with SF-539 CNS, over 100 µM; in the experiment on DU-145 prostate, over 100 µM; with OVCAR-8 ovarian it was over 100 µM; in the experiment with HL-60(TB) leukemia, 41.6 µM. In addition, the TGI in the experiment on HCC-2998 colon is over 100 µM; in the experiment with KM12 colon it was 99.6 µM; with M14 melanoma, 68.9 µM; with NCI-H460 lung, over 100 µM.
`O=C1CCC(N2C(=O)c3ccccc3C2=O)C(=O)N1` (stereo unspecified): the TGI with SF-268 CNS, in the experiment with UO-31 renal, with SF-539 CNS, in the experiment with DU-145 prostate, in the experiment with OVCAR-8 ovarian and in the experiment on HL-60(TB) leukemia was over 100 µM throughout. For the same compound, the TGI in the experiment with HCC-2998 colon, with KM12 colon, in the experiment with M14 melanoma and with NCI-H460 lung was over 100 µM throughout. The GI50 in the experiment on SF-539 CNS and in the experiment on HL-60(TB) leukemia was over 100 µM throughout.
Consider `O=c1[nH]c2nc(NC3CCOCC3)ncc2cc1Oc1ccc(F)cc1F`, for which the GI50 with SF-268 CNS, in the experiment with UO-31 renal, in the experiment on SF-539 CNS, in the experiment on DU-145 prostate, in the experiment on OVCAR-8 ovarian and with HL-60(TB) leukemia was over 25 µM in each case. In addition, the GI50 in the experiment with HCC-2998 colon, with KM12 colon, in the experiment on M14 melanoma and in the experiment on NCI-H460 lung was over 25 µM throughout. For the same compound, the TGI in the experiment on SF-268 CNS, in the experiment on UO-31 renal, in the experiment with SF-539 CNS, in the experiment on DU-145 prostate, with OVCAR-8 ovarian and with HL-60(TB) leukemia was over 25 µM in each case. The TGI in the experiment with HCC-2998 colon, with KM12 colon, with M14 melanoma and in the experiment on NCI-H460 lung was over 25 µM each time.
On to `O=P1(S)OC[C@H]2O[C@@H]3[C@H](F)[C@@H]2OP(O)(=S)OC[C@H]2O[C@H]([C@H](F)[C@@H]2O1)n1cnc2c(ncnc21)NC/C=C/CNc1ncnc2c1ncn23` (stereo partly specified), for which the GI50 in the experiment with SF-268 CNS is over 100 µM; in the experiment with UO-31 renal it was over 100 µM; with SF-539 CNS, 0.229 µM; in the experiment on DU-145 prostate, over 100 µM; with OVCAR-8 ovarian, over 100 µM; in the experiment on HL-60(TB) leukemia, 0.365 µM. For the same compound, the GI50 in the experiment on HCC-2998 colon, with KM12 colon, in the experiment with M14 melanoma and with NCI-H460 lung was over 100 µM in each case. The TGI in the experiment on SF-268 CNS is over 100 µM; in the experiment with UO-31 renal, over 100 µM; in the experiment on SF-539 CNS, over 39.9 µM; in the experiment with DU-145 prostate, over 100 µM; with OVCAR-8 ovarian, over 100 µM; in the experiment with HCC-2998 colon, over 100 µM. In addition, the TGI with KM12 colon, in the experiment on M14 melanoma and in the experiment on NCI-H460 lung was over 100 µM throughout.
In the case of `Cc1ccc(S(=O)(=O)c2nc(-c3ccccc3)oc2S(C)=O)cc1` (stereo unspecified), the GI50 in the experiment with SF-268 CNS was 2.14 µM; with UO-31 renal, 1.26 µM; in the experiment on SF-539 CNS, 1.55 µM; in the experiment on DU-145 prostate it was 1.25 µM; in the experiment with OVCAR-8 ovarian it was 1.77 µM; with HL-60(TB) leukemia, 1.52 µM. The GI50 is 16.4 µM with HCC-2998 colon, 1.95 µM with KM12 colon, 1.59 µM with M14 melanoma and 2.92 µM in the experiment with NCI-H460 lung. Moreover, the TGI in the experiment on SF-268 CNS is 4.14 µM; in the experiment with UO-31 renal, 2.53 µM; in the experiment with SF-539 CNS, 3.01 µM; in the experiment on DU-145 prostate, 2.63 µM; with OVCAR-8 ovarian, 3.79 µM; in the experiment with HL-60(TB) leukemia it was 4.71 µM. Also, the TGI with HCC-2998 colon is 30.4 µM; in the experiment with KM12 colon it was 3.86 µM; in the experiment on M14 melanoma it was 3.25 µM; in the experiment with NCI-H460 lung, 8.98 µM.
As for `CCCCCC[C@H](C)Nc1nc2ccccc2c2occc12`, the GI50 with SF-268 CNS is over 100 µM; in the experiment on UO-31 renal, 4.55 µM; in the experiment with SF-539 CNS, 4.16 µM; with DU-145 prostate, 3.34 µM; in the experiment on OVCAR-8 ovarian, 10.8 µM; with HL-60(TB) leukemia, 11.9 µM. Moreover, the GI50 is 1.4 µM with HCC-2998 colon, 10.6 µM in the experiment with KM12 colon, 7.88 µM with M14 melanoma and over 100 µM in the experiment with NCI-H460 lung. In addition, the TGI in the experiment with SF-268 CNS was over 100 µM; in the experiment on UO-31 renal, 19.2 µM; in the experiment on SF-539 CNS it was 15.2 µM; in the experiment on DU-145 prostate, 14 µM; in the experiment on OVCAR-8 ovarian it was 26.3 µM; in the experiment on HL-60(TB) leukemia, 37.8 µM. Also, the TGI in the experiment on HCC-2998 colon is 8.94 µM; in the experiment with KM12 colon, 32.3 µM; with M14 melanoma, 20.8 µM; in the experiment on NCI-H460 lung it was over 100 µM.
